Measurements: patent US9173893B2, “Purine nucleoside monophosphate prodrugs for treatment of cancer and viral infections” (Cocrystal Pharma, Inc., priority 2009, dated 2015)
Entries after “also recorded” stand apart in the source; their conditions may differ. Read-outs that look alike come from different tables or passages of the source. Blank lines part the entries; values can stand above or below the compound they belong to.

What was measured:
[1] = test system: human peripheral blood mononuclear (PBM) cells; experiment: LC/MS analysis of nucleotides formed after incubation in PBM cells; type: in vitro ADME; conditions: for nucleosides/nucleotides detected by LC/MS / species not detected by LC/MS: 50 μM
MT-2 cells = experiment: Analysis of intracellular nucleotides formed in MT-2 cells; type: in vitro ADME
HepG2 cells = HepG2 cells incubated with 10 μM; cited from earlier work
adenosine deaminase = experiment: Adenosine deaminase assay (deamination of nucleosides); type: in vitro ADME
Experimental: To determine the propensity for deamination of the 6-substituted-2-amino purine nucleoside monophosphate prodrugs by adenosine deaminase, nucleoside compounds were incubated with the commercially available purified enzyme, and the reaction was followed spectrophotometrically. Reaction conditions were 50 mM potassium phosphate, pH 7.4, with 50 μM nucleoside analog in 0.5 mL at 25° C. Reaction time was 7 minutes with 0.002 units of enzyme and 120 minutes with 0.2 units of enzyme. (The unit definition of adenosine deaminase is one unit will deaminate 1.0 μmol of adenosine to inosine per minute at pH 7.5 at 25° C.) Deoxyadenosine was the positive control which was 59% deaminated under the given conditions in 7 minutes with 0.002 units of enzyme. Deoxyguanosine was the negative control. Optical density was measured at 265 nm or 285 nm. The difference in optical density between the beginning and the end of the experiment was divided by the extinction coefficient then multiplied by the volume of the reaction to determine the number of mols of substrate transformed into product. Mols of product were divided by mols of substrate equivalent to a 100% complete reaction then multiplied by 100 to obtain percent deamination. The limit of detection was 0.001 optical density units.

Vero cells = experiment: Cytotoxicity assay in Vero cells; conditions: Chlorocebus sabaeus, read-out: Vero IC50
human PBM cells = experiment: Cytotoxicity assay in PBM cells
[2] = test system: CEM (human lymphoblastoid) cells; experiment: Cytotoxicity assay in CEM cells; conditions: Lymphoblastoid cell, read-out: CEM IC50
HIV-1LAI = experiment: Anti-HIV (in PBM cells) assay; type: cell-based; conditions: Human immunodeficiency virus 1, PBMC; for EC50: read-out: HIV EC50; for EC90: read-out: HIV EC90
Experimental: Stock solutions (20-40 mM) of the compounds were prepared in sterile DMSO and then diluted to the desired concentration in growth medium. Cells were infected with the prototype HIV-1LAI at a multiplicity of infection of 0.01. Virus obtained from the cell supernatant was quantified on day 6 after infection by a reverse transcriptase assay using (rA)n·(dT)12-18 as template-primer. The DMSO present in the diluted solution (<0.1%) had no effect on the virus yield. AZT was included as positive control.

CEM cells = conditions: previous study; cited from earlier work
[3] = test system: PHA-stimulated human PBMCs; conditions: cited from earlier work
[4] = 50 μM nucleoside analog, 50 mM potassium phosphate pH 7.4, 25° C.
[5] = human PBM cells, RS-788 n = 3, RS-864 n = 2

SMILES: [N-]=[N+]=N[C@H]1C[C@H](n2cnc3c(=O)[nH]c(N)nc32)O[C@@H]1CO [AZG]
concentration at which phosphorylation reaches steady state (MT-2 cells; MT-2, four different concentrations): 30 µM

SMILES: O=c1[nH]c(=O)n([C@@H]2O[C@H](CO)[C@@H](O)[C@@H]2F)cc1I [fialuridine, 1,2′-deoxy-2′-fluoro-1-D-arabinofuranosly-5-iodo-uracil]
mitochondrial morphology in electron micrographs (HepG2 cells): enlarged mitochondria with morphological changes consistent with mitochondrial dysfunction

SMILES: CN(C)c1nc(N)nc2c1ncn2[C@H]1CC(N=[N+]=[N-])[C@@H](CO)O1 (stereo partly shown) [Compound 69]
Conversion to the G analog by / stability to adenosine deaminase (adenosine deaminase; under the conditions tested): stable to adenosine deaminase

SMILES: CCOC(=O)[C@H](C)NP(=O)(OC[C@@H]1OC[C@H](n2cnc3c(N)nc(N)nc32)O1)Oc1ccccc1 (stereo partly shown) [RS-864]
nucleosides/nucleotides detected by LC/MS ([1]; PBM cells, 4 hr incubation): low levels of DXG, DXG-MP, and DXG-TP; also recorded: very high levels of DAPD-TP; also recorded: low levels of DAPD, DAPD-MP, DAPD-DP
IC50 (Vero cells): > 100 µM
PBM IC50 printed as percent at a single concentration (human PBM cells; @ 100 μM): 66.5% @ 100 μM
IC50 [2]: > 100 µM
EC50 (HIV-1LAI): 0.24 µM
EC90 (HIV-1LAI): 1.3 µM

SMILES: C=CCNc1nc(N)nc2c1ncn2[C@H]1CC(N=[N+]=[N-])[C@@H](CO)O1 (stereo partly shown) [Compound 62]
nucleosides/nucleotides detected by LC/MS ([1]; human, 4 h): RFS-457-DP and RFS-457-TP
species not detected by LC/MS ([1]; human, 4 h): No RFS-427, RFS-427-MP, RFS-427-DP, or RFS-427-TP were detected

Now from value to compound, other results behind:

nucleosides/nucleotides detected by LC/MS ([1]; human, 4 h): RFS-506-DP, RFS-457-DP, and RFS-457-TP
SMILES: COc1nc(N)nc2c1ncn2[C@H]1CC(N=[N+]=[N-])[C@@H](CO)O1 (stereo partly shown) [Compound 70]
species not detected by LC/MS ([1]; human, 4 h): No RFS-506, RFS-506-MP, or RFS-506-TP were detected

nucleosides/nucleotides detected by LC/MS ([1]; human, 4 h): RFS-457-DP and RFS-457-TP
SMILES: [N-]=[N+]=NC1C[C@H](n2cnc3c(NC4CC4)nc(N)nc32)O[C@@H]1CO (stereo partly shown) [Compound 72]
species not detected by LC/MS ([1]; human, 4 h): No RFS-512, RFS-512-MP, RFS-512-DP, or RFS-512-TP were detected

AZG-TP levels compared with AZG treatment ([1]; PBM cells, 4 hr at 50 μM): higher
nucleosides/nucleotides detected by LC/MS ([1]; human, 4 h): RFS-457-TP
Deamination in 7 min (0.002 units Adenosine Deaminase) (adenosine deaminase; [4]): 12.81 ± 1.57%
Deamination in 120 min (0.2 units Adenosine Deaminase) (adenosine deaminase; [4]): 240.53 ± 5.86%
level of unchanged drug detected (MT-2 cells; MT-2 cells treated with drug for 30 min): Negligible levels of 6415
nucleosides/nucleotides detected (MT-2 cells; MT-2 cells, 50 μM, 4 hr): converted to AZG and AZG-TP
AZG-TP levels compared with AZG treatment (MT-2 cells; MT-2 cells, 4 hr at 50 μM): higher
SMILES: [N-]=[N+]=NC1C[C@H](n2cnc3c(Cl)nc(N)nc32)O[C@@H]1CO (stereo partly shown) [Compound 6415]
species not detected by LC/MS ([1]; human, 4 h): Neither Compound 6415 nor its phosphates were detected

EC50 (HIV-1LAI; [5]): 1 µM
EC90 (HIV-1LAI; [5]): 6.5 µM
SMILES: Nc1nc(N)c2ncn([C@H]3CO[C@@H](CO)O3)c2n1 [DAPD, (−)-β-D-2,6-diaminopurine dioxolane, reference compound]
IC50 (Vero cells): > 100 µM
intracellular metabolism (CEM cells): readily deaminate to (−)-D-dioxolane guanine (DXG); also recorded: No phosphorylation of DAPD to the corresponding mono-, di-, or triphosphate forms was detected
DAPD levels in PBMCs relative to CEM cells ([3]; Antimicrob. Agents Chemother. 2001, 45, 158-165): 27 fold
intracellular metabolism ([3]; PHA-stimulated human PBMCs, previous study): readily deaminate to (−)-D-dioxolane guanine (DXG); also recorded: No phosphorylation of DAPD to the corresponding mono-, di-, or triphosphate forms was detected
IC50 (human PBM cells; Homo sapiens, PBMC, read-out: PBM IC50): > 100 µM
IC50 [2]: > 100 µM
